This is an account of results in paper PMC4491662, “Synthesis, Biological Evaluation and Molecular Modeling of Substituted Indeno[1,2-b]indoles as Inhibitors of Human Protein Kinase CK2” (Pharmaceuticals, 2015).

Where only a bound is given, the exact number is not on record here.

For data set [1], the system named is HEK293T. In words: Cytotoxicity WST-1 assay on HEK293T. It counts as cell-based, human. Conditions: 96 h; for EC50: Homo sapiens, HEK-293T, read-out: EC50 in µM ± SD. From the text: (§1) Four cell lines of various origins were used to evaluate the cytotoxicity of our target compounds 5–7. The selected cell lines were (i) NIH-3T3, a cell line originally established from the primary mouse embryonic fibroblast cells, (ii) MEF, primary mouse embryonic fibroblasts (used at their early passages) prepared as previously described, (iii) WI-38, a human diploid cell line derived from normal embryonic lung tissue, and (iv) HEK293T, a transformed variant of the human embryonic kidney cell line HEK293. After 96 h, cytotoxicity was evaluated using the WST-1 assay. […] Seventeen compounds were evaluated on the cell lines and then compared to TBB used as a standard. […]. All cells were grown in DMEM medium supplemented with 10% fetal calf serum, glutamine (2 mM), penicillin (100 U/mL), and streptomycin (50 μg/mL) at 37 °C under a humidified 5% CO2 atmosphere (Gibco). The assays were performed in sterile 96-wells microtiter plates (Falcon). Cells were plated at 500 (NIH-3T3), 750 (WI-38) or 1000 (MEF; HEK293T) cells/100 µL/well. Drug solutions (10 μL per well) of appropriate concentration (prepared by dilution in the culture medium from 2 mM stock acetonitrile solution) were added 24 h after cell seeding. For ellagic acid and emodin, DMSO was used to prepare the stock solution. After 96 h, the cytotoxicity is evaluated using the Cell Proliferation Reagent WST-1 following the procedure described by the manufacturer (Roche Applied Science). The drugs were assayed at 10, 5, 1, 0.2 and 0.04 µM in triplicate. The vehicle was used as control. The experiments were repeated three times.

Data set [2] can be described thus: Cytotoxicity WST-1 assay, statements over the four cell lines. The data set is classed as cell-based. The following applies: mouse (NIH-3T3, MEF) and human (WI-38, HEK293T), WST-1, cell line not specified, read-out: EC50 (cytotoxic activity, over the cell lines).
Text: as §1

Data set [3] relates to NIH-3T3. The experiment in a line: Cytotoxicity WST-1 assay on NIH-3T3. It counts as cell-based, mouse. Conditions: for EC50: Mus musculus, NIH3T3, 96 h, read-out: EC50 in µM ± SD.
Text: as §1

Data set [4] relates to WI-38. In words: Cytotoxicity WST-1 assay on WI-38. The following applies: WI-38, 96 h; for EC50: Homo sapiens, read-out: EC50 in µM ± SD. The data set is classed as cell-based, human.
Text: as §1

Data set [5] deals with MEF. In words: Cytotoxicity WST-1 assay on MEF. It counts as cell-based, mouse. Conditions: 96 h; for EC50: Mus musculus, read-out: EC50 in µM ± SD.
Text: as §1

Data set [6] addresses T1, human CK2 holoenzyme (Homo sapiens, UniProt P68400). In words: biochemical. The following applies: for inhibition at 10 µM: average percent inhibition at 10 µM.
The target in data set [7] is T1, human CK2 holoenzyme. The experiment in a line: Mode of inhibition and Ki determination, CE based CK2 activity assay at varied ATP. The data set is classed as biochemical. Also on record: made in house; host or cells: Escherichia coli BL21(DE3), pT7-7 expression system. Conditions: for IC50: IC50 at varied ATP. On the procedure:
For this purpose, reaction rates at different inhibitor concentrations were plotted in a Lineweaver-Burk diagram against the varying ATP concentration, resulting in −1/Kmapp as given by the intercepts with the abscissa in both graphs. For determining the Ki values, Kmapp were plotted against the different inhibitor concentrations as shown for 7a in Figure 6.
For this purpose, enzymatic reactions and IC50 determinations were performed as described in Section 3.3.2., but varying compositions of the assay buffer with respect to the ATP concentration were used. […] For this purpose, reaction velocities at different inhibitor concentrations were plotted in a Lineweaver-Burk diagram against the varied ATP concentrations and the corresponding −1/Kmapp were obtained by the intercepts with the abscissa. Finally the Kmapp values as obtained were plotted against the different inhibitor concentrations. By this method, the Ki values with a negative sign were given by the intercepts of the linear slope with the abscissa.

T1 sequence (P68400 whole entry): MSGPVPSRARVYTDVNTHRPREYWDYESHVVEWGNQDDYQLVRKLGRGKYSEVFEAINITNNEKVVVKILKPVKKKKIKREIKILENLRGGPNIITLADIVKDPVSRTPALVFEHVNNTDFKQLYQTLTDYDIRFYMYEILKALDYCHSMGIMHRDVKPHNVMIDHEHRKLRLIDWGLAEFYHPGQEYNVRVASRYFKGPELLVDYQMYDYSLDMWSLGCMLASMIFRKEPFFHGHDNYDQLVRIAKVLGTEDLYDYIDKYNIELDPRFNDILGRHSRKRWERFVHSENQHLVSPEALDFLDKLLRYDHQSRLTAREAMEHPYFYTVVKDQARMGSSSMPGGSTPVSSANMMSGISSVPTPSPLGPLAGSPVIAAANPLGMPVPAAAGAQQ
T1 sequence (P67870 whole entry partner): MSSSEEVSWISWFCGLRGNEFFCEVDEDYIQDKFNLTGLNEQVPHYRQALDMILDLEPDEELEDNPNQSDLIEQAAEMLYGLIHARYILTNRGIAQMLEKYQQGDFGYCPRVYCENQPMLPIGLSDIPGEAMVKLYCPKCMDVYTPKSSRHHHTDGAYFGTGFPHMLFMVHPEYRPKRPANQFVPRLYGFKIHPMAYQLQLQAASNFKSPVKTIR

`CC1CC(=O)c2c3c(n(C(C)C)c2C1)-c1ccccc1C3=O` (stereo not drawn) [Compound 5a, 5-Isopropyl-7-methyl-5,6,7,8-tetrahydroindeno[1,2-b]indole-9,10-dione]: the EC50 in data set [1], in data set [3], in data set [4] and in data set [5] was over 10 µM throughout. Besides, the EC50 at 96 h in data set [2] was over 10 µM.
Consider `CC(C)C1CC(=O)c2c3c(n(C(C)C)c2C1)-c1ccccc1C3=O` (stereo not drawn) [Compound 5b, 5,7-Diisopropyl-5,6,7,8-tetrahydroindeno[1,2-b]indole-9,10-dione], for which the EC50 in data set [1] was over 10 µM; in data set [3] it was over 10 µM; in data set [4], over 10 µM; in data set [5], 4.4 ± 0.3 µM. In data set [2], the EC50 at 96 h was over 10 µM. The IC50 in data set [6] came out at 610 ± 30 nM.
With `CC(C)n1c2c(c3c1-c1ccccc1C3=O)C(=O)CC(c1ccccc1)C2` (stereo not drawn) [Compound 5c, 5-Isopropyl-7-phenyl-5,6,7,8-tetrahydroindeno[1,2-b]indole-9,10-dione], the melting point came to 278 °C. In addition, in data set [1], the EC50 was over 10 µM. Moreover, in data set [3], the concentration for a half-maximal effect (EC50) is over 10 µM. This compound showed an inhibition at 10 µM in data set [6] of 7%. In addition, the EC50 in data set [4] was over 10 µM. In data set [5], the EC50 was over 10 µM.
For `CC(C)n1c2c(c3c1-c1ccccc1C3=O)C(=O)CC(c1ccc(F)cc1)C2` (stereo not drawn) [Compound 5d, 7-(4-Fluorophenyl)-5-isopropyl-5,6,7,8-tetrahydroindeno[1,2-b]indole-9,10-dione], the melting point was determined as 264 °C. Besides, in data set [6], the inhibition at 10 µM turned out to be 12%.
For `CC(C)n1c2c(c3c1-c1ccccc1C3=O)C(=O)CC(c1ccco1)C2` (stereo not drawn) [Compound 5e, 7-Furan-2-yl-5-isopropyl-5,6,7,8-tetrahydroindeno[1,2-b]indole-9,10-dione], in that order: 233.1 °C and 35%.
Regarding `CC1CCc2c(c3c(n2C(C)C)-c2ccccc2C3=O)C1=O` (stereo not drawn) [Compound 5f, 5-Isopropyl-8-methyl-5,6,7,8-tetrahydroindeno[1,2-b]indole-9,10-dione], the 50% effective concentration (EC50) in data set [1], in data set [3], in data set [4] and in data set [5] was over 10 µM each time.
Regarding `CC(C)C1CCc2c(c3c(n2C(C)C)-c2ccccc2C3=O)C1=O` (stereo not drawn) [Compound 5g, 5,8-Diisopropyl-5,6,7,8-tetrahydroindeno[1,2-b]indole-9,10-dione], the melting point amounted to 215 °C. Moreover, in data set [1], the EC50 is over 10 µM. The EC50 in data set [3] is over 10 µM. Besides, testing at 10 µM in data set [6] gave an inhibition of 21%. In addition, in data set [4], the EC50 was over 10 µM. For the same compound, the EC50 in data set [5] is over 10 µM.
As for `Cc1cc(O)c2c3c(n(C(C)C)c2c1)-c1ccccc1C3=O` [Compound 6a, 9-Hydroxy-5-isopropyl-7-methyl-5H-indeno[1,2-b]indol-10-one], the EC50 in data set [1], in data set [3], in data set [4] and in data set [5] was over 10 µM in each case.
`CC(C)c1cc(O)c2c3c(n(C(C)C)c2c1)-c1ccccc1C3=O` [Compound 6b, 9-Hydroxy-5,7-diisopropyl-5H-indeno[1,2-b]indol-10-one] gave a melting point of 188.1 °C. Moreover, in data set [1], the EC50 was over 10 µM. Besides, the concentration giving a half-maximal response (EC50) in data set [3] was over 10 µM. Also, in data set [4], the EC50 was over 10 µM. Further, in data set [5], the EC50 was over 10 µM.
Compound `CC(C)n1c2c(c3c(O)cc(-c4ccccc4)cc31)C(=O)c1ccccc1-2` [Compound 6c, 9-Hydroxy-5-isopropyl-7-phenyl-5H-indeno[1,2-b]indol-10-one] gave a melting point of 198 °C. Also, the EC50 in data set [1] was over 10 µM. In data set [3], the EC50 is over 10 µM. In addition, in data set [4], the EC50 is over 10 µM. Further, in data set [5], the EC50 is over 10 µM.
The compound `CC(C)n1c2c(c3c(O)cc(-c4ccc(F)cc4)cc31)C(=O)c1ccccc1-2` [Compound 6d, 7-(4-Fluorophenyl)-9-hydroxy-5-isopropyl-5H-indeno[1,2-b]indol-10-one] showed a melting point of 208.1 °C. In addition, the EC50 in data set [1] was over 10 µM. Besides, the EC50 in data set [3] was over 10 µM. Also, the EC50 in data set [4] was over 10 µM. The EC50 in data set [5] was over 10 µM.
As to `CC(C)n1c2c(c3c(O)cc(-c4ccco4)cc31)C(=O)c1ccccc1-2` [Compound 6e, 7-Furan-2-yl-9-hydroxy-5-isopropyl-5H-indeno[1,2-b]indol-10-one], the melting point worked out at 191 °C. Also, the EC50 in data set [1] was over 10 µM. The concentration giving a half-maximal response (EC50) in data set [3] is over 10 µM. The EC50 in data set [4] was over 10 µM. In data set [5], the EC50 is over 10 µM.
Compound `CC(C)c1ccc2c(c1O)c1c(n2C(C)C)-c2ccccc2C1=O` [Compound 6g, 9-Hydroxy-5,8-diisopropyl-5H-indeno[1,2-b]indol-10-one] gave a melting point of 235 °C.
For `Cc1cc(=O)c2c3c(=O)c4ccccc4c3n(C(C)C)c2c1=O` [Compound 7a, 5-Isopropyl-7-methyl-5H-indeno[1,2-b]indole-6,9,10-trione], the melting point came out at 235 °C. Further, the “EC50 in µM ± SD” value in data set [1] (HEK293T, WST-1) is on record as “not soluble”. For the same compound, in data set [3] (NIH-3T3, 96 h, WST-1), the “EC50 in µM ± SD” value was “not soluble”. Further, in data set [6], the IC50 came to 430 ± 120 nM and the inhibition at 10 µM was 87%. The “EC50 in µM ± SD” value in data set [4] (WST-1) was “not soluble”. This compound came in with a Ki in data set [7] of 144 ± 22 nM. In addition, the IC50 in data set [7] (fifth of six ATP concentrations ranging from 6 to 600 µM) turned out to be 3320 nM. For the same compound, in data set [7] (fourth of six ATP concentrations ranging from 6 to 600 µM), the IC50 was found to be 1270 nM. Moreover, in data set [7] (highest of six ATP concentrations, 600 µM), the IC50 came out at 5160 nM. Also, the IC50 in data set [7] (lowest of six ATP concentrations, 6 µM) was 130 nM. The IC50 in data set [7] (second of six ATP concentrations ranging from 6 to 600 µM) stood at 340 nM. Besides, the IC50 in data set [7] (third of six ATP concentrations ranging from 6 to 600 µM) was 430 nM. For the same compound, the “mode of CK2 inhibition” value in data set [7] (IC50 increases linearly with ATP concentration) is listed as “ATP competitive”. In data set [7] (fold higher), the “IC50 at 600 µM ATP compared to IC50 at 6 µM ATP” value is recorded as 40 fold. In addition, the “EC50 in µM ± SD” value in data set [5] (WST-1) was “not soluble”.
Consider `CC(C)n1c2c(=O)c(-c3ccccc3)cc(=O)c2c2c(=O)c3ccccc3c21` [Compound 7c, 5-Isopropyl-7-phenyl-5H-indeno[1,2-b]indole-6,9,10-trione], for which the melting point stood at 230.4 °C. The EC50 in data set [1] was determined as 1.6 ± 0.2 µM. Besides, the EC50 at 96 h in data set [2] fell in the range of 0.4 to 8.8 µM. Further, the EC50 in data set [3] was over 10 µM. Also, at 10 µM the inhibition in data set [6] was 41%. The EC50 in data set [4] is over 10 µM. The EC50 in data set [5] was over 10 µM.
As to `CC(C)n1c2c(=O)c(-c3ccco3)cc(=O)c2c2c(=O)c3ccccc3c21` [Compound 7e, 7-Furan-2-yl-5-isopropyl-5H-indeno[1,2-b]indole-6,9,10-trione], the melting point amounted to 216.1 °C. In data set [6], this compound displayed an IC50 of 1650 ± 140 nM and an inhibition at 10 µM of 82%.
Turning to `Brc1c(Br)c(Br)c2[nH]nnc2c1Br` [TBB, reference compound], the EC50 in data set [1], in data set [3], in data set [4] and in data set [5] was over 10 µM in each case.
`Cc1cc(O)c2c(c1)C(=O)c1cc(O)cc(O)c1C2=O` [emodin, reference compound]: the EC50 in data set [1], in data set [3], in data set [4] and in data set [5] was over 10 µM in each case.
